pIC50: −log10 of the molar value.

Data set [1] concerns the target T1, human kinesin spindle protein KSP/Eg5 (Homo sapiens, UniProt P52732).
T1 construct: The motor domain of the human kinesin spindle protein KSP/Eg5; purchased tebu-bio/Cytoskeleton Inc 027EG01-XL
T1 sequence (P52732 18-359 limits assumed): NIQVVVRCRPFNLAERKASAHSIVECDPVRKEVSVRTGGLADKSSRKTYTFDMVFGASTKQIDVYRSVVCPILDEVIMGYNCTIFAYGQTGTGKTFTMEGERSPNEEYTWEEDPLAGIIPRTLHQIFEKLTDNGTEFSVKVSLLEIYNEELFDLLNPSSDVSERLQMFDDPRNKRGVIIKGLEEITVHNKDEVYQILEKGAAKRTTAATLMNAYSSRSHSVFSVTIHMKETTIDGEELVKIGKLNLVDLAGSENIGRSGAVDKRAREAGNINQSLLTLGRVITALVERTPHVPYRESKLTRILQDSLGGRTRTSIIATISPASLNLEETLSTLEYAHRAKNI
Kind of data set: Inhibition of the kinesin spindle protein KSP/Eg5 (ATPase, malachite green). The data set is classed as biochemical. Particulars: 10 nM KSP motor domain, 500 μM ATP, 2 h RT. An outline of the steps:
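KSP/Eg5 motor domain (10 nM) preincubated 5 min at RT with 50 μg/ml taxol-stabilized bovine or porcine microtubules in 15 mM PIPES pH 6.8, 5 mM MgCl2, 10 mM DTT. IC50 = mean of three experiments.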

Data set [2] is described as follows: Cell permeability, flux assay using Caco-2 cells. Particulars: human, Caco-2. (Caco-2 monolayers are a common model of the intestinal barrier.)
The next data set relates to NCI-H292. Kind of data set: Cytotoxic effects, MTT assay. The data set is classed as cell-based. To be noted: Homo sapiens, 72 h incubation. The protocol:
The cells are cultivated by a standard method, as indicated in the […] (ATCC) for the respective cell lines.
At the end of the selected incubation time, the MTT reagent is incubated with the cells for 4 h, followed by lysis of the cells overnight by addition of the detergent. […] The proliferation of cells which were not treated with test substance but were otherwise identically treated was defined as the 100% figure.
On the technique in general: Tetrazolium assays rely on reduction of a dye to a coloured formazan, in cell work by metabolically active cells.

Take `C[C@H](NC(=O)CCNC(=O)[C@@H](N)CCN(C(=O)CO)[C@@H](c1nn(-c2cc(F)ccc2F)cc1Cc1ccccc1)C(C)(C)C)C(=O)N[C@@H](CCCNC(N)=O)C(=O)Nc1ccc(N2C(=O)CC(SC[C@H](N)C(=O)O)C2=O)cc1.O=C(O)C(F)(F)F` (stereo partly drawn) [Example 132, N-{(2S)-2-Amino-4-[{(1R)-1-[4-benzyl-1-(2,5-difluorophenyl)-1H-pyrazol-3-yl]-2,2-dimethylpropyl}(glycoloyl)amino]butanoyl}-beta-alanyl-L-alanyl-N-[4-(3-{[(2R)-2-amino-2-carboxyethyl]sulphanyl}-2,5-dioxopyrrolidin-1-yl)phenyl]-N^5-carbamoyl-L-ornithinamide/trifluoroacetic acid (1:1)]: the pIC50 in data set [1] was 8.78. Moreover, in data set [2], the Papp B→A at 2 h was found to be 0.16 ×10⁻⁶ cm/s and the efflux ratio at 2 h stood at 1. Besides, the IC50 in the data set with NCI-H292 is no less than 500 nM.
Compound `CC(C)(C)[C@H](c1cc(-c2cc(F)ccc2F)cn1Cc1ccccc1)N(CC[C@H](N)C(=O)NCCC(=O)NCCN1C(=O)CC(SC[C@H](N)C(=O)O)C1=O)C(=O)CO.O=C(O)C(F)(F)F` (stereo partly drawn) [Example 133, S-(1-{2-[(N-{(2S)-2-Amino-4-[{(1R)-1-[1-benzyl-4-(2,5-difluorophenyl)-1H-pyrrol-2-yl]-2,2-dimethylpropyl}(glycoloyl)amino]butanoyl}-beta-alanyl)amino]ethyl}-2,5-dioxopyrrolidin-3-yl)-L-cysteine/trifluoroacetic acid (1:1)] gave a pIC50 in data set [1] of 8.38. Moreover, in data set [2], the Papp B→A at 2 h turned out to be 0.43 ×10⁻⁶ cm/s and the efflux ratio at 2 h stood at 6. In addition, in the data set on NCI-H292, the IC50 came out at 155 nM.
In the case of `CC(C)[C@H](NC(=O)CCCCCN1C(=O)CC(SC[C@H](N)C(=O)O)C1=O)C(=O)N[C@@H](CCCNC(N)=O)C(=O)N[C@@H](CCCCNC(=O)[C@@H](N)CCN(C(=O)CO)[C@@H](c1nn(-c2cc(F)ccc2F)cc1Cc1ccccc1)C(C)(C)C)C(=O)O` (stereo partly drawn) [Example 134, N-[6-(3-{[(2R)-2-Amino-2-carboxyethyl]sulphanyl}-2,5-dioxopyrrolidin-1-yl)hexanoyl]-L-valyl-N^5-carbamoyl-L-ornithyl-N^6-{(2S)-2-amino-4-[{(1R)-1-[4-benzyl-1-(2,5-difluorophenyl)-1H-pyrazol-3-yl]-2,2-dimethylpropyl}(glycoloyl)amino]butanoyl}-L-lysine/trifluoroacetic acid (1:1)], the pIC50 in data set [1] was 8.36. In data set [2], the apparent permeability from basolateral to apical (Papp B→A) at 2 h came out at 0.29 ×10⁻⁶ cm/s and the efflux ratio at 2 h is 0.5. The compound further returned an IC50 with NCI-H292 of no less than 500 nM.
For `CC(C)(C)[C@H](c1nn(-c2cc(F)ccc2F)cc1Cc1ccccc1)N(CC[C@H](N)C(=O)NCCNC(=O)CSC[C@H](N)C(=O)O)C(=O)CO.O=C(O)C(F)(F)F` [Example 136, S-(2-{[2-({(2S)-2-Amino-4-[{(1R)-1-[4-benzyl-1-(2,5-difluorophenyl)-1H-pyrazol-3-yl]-2,2-dimethylpropyl}(glycoloyl)amino]butanoyl}amino)ethyl]amino}-2-oxoethyl)-L-cysteine/trifluoroacetic acid (1:1)], the pIC50 in data set [1] is 9.48. For the same compound, in data set [2], the Papp B→A at 2 h came to 0.91 ×10⁻⁶ cm/s and the efflux ratio at 2 h amounted to 8.5. The same compound gave an IC50 in the data set with NCI-H292 of no less than 500 nM.
In data set [1], `CC(C)(C)[C@H](c1nn(-c2cc(F)ccc2F)cc1Cc1ccccc1)N(CC[C@H](N)C(=O)NNC(=O)CCCCCN1C(=O)CC(SC[C@H](N)C(=O)O)C1=O)C(=O)CO.O=C(O)C(F)(F)F` (stereo partly drawn) [Example 137, S-{1-[6-(2-{(2S)-2-Amino-4-[{(1R)-1-[4-benzyl-1-(2,5-difluorophenyl)-1H-pyrazol-3-yl]-2,2-dimethylpropyl}(glycoloyl)amino]butanoyl}hydrazino)-6-oxohexyl]-2,5-dioxopyrrolidin-3-yl}-L-cysteine/trifluoroacetic acid (1:1)] had a pIC50 of 9.11. In data set [2], the Papp B→A at 2 h is 1.7 ×10⁻⁶ cm/s and the efflux ratio at 2 h was determined as 19. In addition, the IC50 in the data set with NCI-H292 is no less than 500 nM.
In the same order, the values of `CC(C)(C)[C@H](c1cc(-c2cc(F)ccc2F)cn1Cc1ccccc1)N(CC[C@H](N)C(=O)NCCN1C(=O)CC(SC[C@H](N)C(=O)O)C1=O)C(=O)CO.O=C(O)C(F)(F)F.O=C(O)C(F)(F)F` (stereo partly drawn) [Example 139, S-{(3R/S)-1-[2-({(2S)-2-amino-4-[{(1R)-1-[1-benzyl-4-(2,5-difluorophenyl)-1H-pyrrol-2-yl]-2,2-dimethylpropyl}(glycoloyl)amino]butanoyl}amino)ethyl]-2,5-dioxopyrrolidin-3-yl}-L-cysteine/trifluoroacetic acid (1:2)] are 8.74, 2.1 ×10⁻⁶ cm/s, 7.7 and 134 nM.
In the same order, the values of `CC(C)(C)[C@H](c1cc(-c2cc(F)ccc2F)cn1Cc1ccccc1)N(CCCN)C(=O)CSCCCCCC(=O)NCCN1C(=O)CC(SC[C@H](N)C(=O)O)C1=O.O=C(O)C(F)(F)F.O=C(O)C(F)(F)F` (stereo partly drawn) [Example 141, S-[(3R/S)-1-(2-{[6-({2-[(3-aminopropyl) {(1R)-1-[1-benzyl-4-(2,5-difluorophenyl)-1H-pyrrol-2-yl]-2,2-dimethylpropyl}amino]-2-oxoethyl}sulphanyl)hexanoyl]amino}ethyl)-2,5-dioxopyrrolidin-3-yl]-L-cysteine/trifluoroacetic acid (1:2)] are 9.04, 3 ×10⁻⁶ cm/s, 35 and 16.1 nM.
`CC(C)(C)[C@H](c1cc(-c2cc(F)ccc2F)cn1Cc1ccccc1)N(CC[C@H](N)C(=O)N[C@H]1CC[C@@H](C(=O)NCCN2C(=O)CC(SC[C@H](N)C(=O)O)C2=O)C1)C(=O)CO.O=C(O)C(F)(F)F` (stereo partly drawn) [Example 157, S-{1-[2-({[(1R,3S)-3-({(2S)-2-Amino-4-[{(1R)-1-[1-benzyl-4-(2,5-difluorophenyl)-1H-pyrrol-2-yl]-2,2-dimethylpropyl}(glycoloyl)amino]butanoyl}amino)cyclopentyl]carbonyl}amino)ethyl]-2,5-dioxopyrrolidin-3-yl}-L-cysteine/trifluoroacetic acid (1:1)] gave a negative logarithm of the IC50 (pIC50) in data set [1] of 8.02. In addition, in data set [2], the Papp B→A at 2 h is 0.77 ×10⁻⁶ cm/s and the efflux ratio at 2 h came out at 7.2. The compound further displayed an IC50 in the data set with NCI-H292 of no less than 500 nM.
For `C[C@@H](NC(=O)[C@@H](N)CCN(C(=O)CO)[C@@H](c1nc(-c2cc(F)ccc2F)cn1Cc1ccccc1)C(C)(C)C)C(=O)NCCCC[C@H](N)C(=O)O.O=C(O)C(F)(F)F` [Example 159, N^6-(N-{(2S)-2-Amino-4-[{(1R)-1-[1-benzyl-4-(2,5-difluorophenyl)-1H-imidazol-2-yl]-2,2-dimethylpropyl}(glycoloyl)amino]butanoyl}-D-alanyl)-L-lysine/trifluoroacetic acid (1:1)], in that order: 9.51, 0.7 ×10⁻⁶ cm/s, 6.1 and 114 nM.
In the same order, the values of `CC(C)[C@H](NC(=O)CCCCCN1C(=O)CC(SC[C@H](N)C(=O)O)C1=O)C(=O)N[C@@H](C)C(=O)N[C@@H](CCCCNC(=O)CCNC(=O)[C@@H](N)CCN(C(=O)CO)[C@@H](c1cc(-c2cc(F)ccc2F)cn1Cc1ccccc1)C(C)(C)C)C(=O)O` (stereo partly drawn) [Example 160, N^6-(N-{(2S)-2-Amino-4-[{(1R)-1-[1-benzyl-4-(2,5-difluorophenyl)-1H-pyrrol-2-yl]-2,2-dimethylpropyl}(glycoloyl)amino]butanoyl}-beta-alanyl)-N^2-N-{[6-(3-{[(2R)-2-amino-2-carboxyethyl]sulfanyl}-2,5-dioxopyrrolidin-1-yl)hexanoyl]-L-valyl-L-alanyl}-L-lysine/trifluoroacetic acid (1:1)] are 9.17, 0.16 ×10⁻⁶ cm/s, 1 and no less than 500 nM.
Compound `CC(C)(C)[C@H](c1cc(-c2cc(F)ccc2F)cn1Cc1ccccc1)N(CC[C@H](N)C(=O)NCCN)C(=O)CO.O=C(O)C(F)(F)F` [Example 198] had a negative-log IC50 (pIC50) in data set [1] of 7.97. Also, in data set [2], the Papp B→A at 2 h turned out to be 51.9 ×10⁻⁶ cm/s and the efflux ratio at 2 h came to 34. The IC50 with NCI-H292 came out at 19.5 nM.
For `CC(C)(C)[C@H](c1cc(-c2cc(F)ccc2F)cn1Cc1ccccc1)N(CCCN)C(=O)CSC[C@H](NC(=O)CCOCCOCCOCCOCCNC(=O)CCN1C(=O)CC(SC[C@H](N)C(=O)O)C1=O)C(=O)O.O=C(O)C(F)(F)F.O=C(O)C(F)(F)F` (stereo partly drawn) [Example 226, (2R)-22-[(3R/S)-3-{[(2R)-2-Amino-2-carboxyethyl]sulphanyl}-2,5-dioxopyrrolidin-1-yl]-2-[({2-[(3-aminopropyl){(1R)-1-[1-benzyl-4-(2,5-difluorophenyl)-1H-pyrrol-2-yl]-2,2-dimethylpropyl}amino]-2-oxoethyl}sulphanyl)methyl]-4,20-dioxo-7,10,13,16-tetraoxa-3,19-diazadocosan-1-oic acid/trifluoroacetic (1:2)], the pIC50 in data set [1] is 8.83. For the same compound, in data set [2], the Papp B→A at 2 h came out at 0.3 ×10⁻⁶ cm/s and the efflux ratio at 2 h came out at 0.2. For the same compound, in the data set on NCI-H292, the IC50 came to 222 nM.

A word on the pIC50: it is the IC50 on a negative log10 scale, so that one unit is a factor of ten. A lower pIC50 goes with a large IC50. The term Papp B→A denotes the apparent permeability from the basolateral to the apical side of a cell layer. Broadly, the efflux ratio is a quotient of directional permeabilities that is used to spot active efflux. By IC50 is commonly meant the concentration that inhibits the measured activity by half. Higher therefore signals lower potency.

The values are drawn from US10022453B2 (BAYER PHARMA AKTIENGESELLSCHAFT, priority 2013, dated 2018).
